For one experiment, the target named is Kv1.5 (Homo sapiens, UniProt P22460). The experiment in a line: Off‐target panel: Kv1.5. The note with it: Blocker, read-out: Mean (PXC50). Format: cell-based. On the procedure: (§1) GSK716 selectivity and PK properties were profiled in order to investigate the suitability of GSK716 for progression into in vivo studies and the potential for taking it forward as a clinical candidate for testing in humans. Since GSK716 results in loss of inhibitory activity of α1‐antitrypsin, the effect of the compound was assessed on other closely related serpins. […] Furthermore, there were no off‐target effects in a panel of assays considered predictive of known safety liabilities that precluded further development of GSK716 (Table EV1).

The next experiment addresses Dopamine D1 (Homo sapiens, UniProt P21728). In words: Off‐target panel: Dopamine D1. Format: cell-based. On the procedure: as §1
The target of a further experiment is Cannabinoid CB1 (Homo sapiens, UniProt P21554). The experiment in a line: Off‐target panel: Cannabinoid CB1 (DRX). The format is cell-based. The procedure: as §1
For the next experiment, the target named is Vasopressin V1a (Homo sapiens, UniProt P37288). The experiment in a line: Off‐target panel: Vasopressin V1a (DRX). The note with it: Antagonist, read-out: Mean (PXC50). The format is cell-based. The procedure:
as §1

Another experiment has as its target T1, M α1‐antitrypsin (Homo sapiens, UniProt P01009).
T1 construct: purified from the plasma of M (wild‐type) and Z α1‐antitrypsin homozygotes; from tissue; host or cells: human plasma of M (wild-type) homozygotes
In words: Association kinetics by intrinsic tryptophan fluorescence (stopped flow), M α1‐antitrypsin. Format: binding. The source says:
The shape of the curves and native mass spectrometry (not shown) are consistent with a single high‐affinity compound binding site. No binding of the fluorescent derivative to polymers of Z α1‐antitrypsin was observed, indicating conformational selectivity for the monomeric protein (Fig 1D). The rate of interaction of the compound with the target was monitored through changes in intrinsic tryptophan fluorescence (Dafforn et al, 1999); this property was used to determine the second‐order association rate constants for GSK716 binding to Z (4.1 × 10^4 M^−1 s^−1) and M α1‐antitrypsin (2.1 × 10^2 M^−1 s^−1; Fig 1E and F). […] Therefore, the selectivity of the compound for Z over M α1‐antitrypsin is dominated by the difference in the rate of association rather than dissociation.
Kinetic parameters of GSK716 binding to M, Z, S (Glu264Val) and Baghdad (Ala336Pro) (Haq et al, 2016) α1‐antitrypsin were measured by detecting intrinsic tryptophan fluorescence of the protein (excitation at 280 nm and detection of emission at 320 nm) on a stopped flow apparatus (Applied Photophysics) (Kim & Yu, 1996; Dafforn et al, 1999). […]

The structures appear in SMILES notation. pEC50, pIC50: −log10 of the molar value.

T1 sequence (P01009 25-418): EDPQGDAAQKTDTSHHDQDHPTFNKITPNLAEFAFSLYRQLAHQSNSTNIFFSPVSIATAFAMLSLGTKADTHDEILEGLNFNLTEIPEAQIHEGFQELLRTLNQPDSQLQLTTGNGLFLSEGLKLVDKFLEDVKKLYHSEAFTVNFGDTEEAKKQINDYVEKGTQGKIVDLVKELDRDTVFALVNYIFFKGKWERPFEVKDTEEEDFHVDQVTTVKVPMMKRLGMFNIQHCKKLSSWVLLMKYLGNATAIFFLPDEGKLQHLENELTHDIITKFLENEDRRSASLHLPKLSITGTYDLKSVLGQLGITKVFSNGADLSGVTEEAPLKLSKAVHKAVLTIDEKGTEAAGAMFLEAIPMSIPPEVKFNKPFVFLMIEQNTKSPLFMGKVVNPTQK
Sequence of Cannabinoid CB1 (P21554 whole entry): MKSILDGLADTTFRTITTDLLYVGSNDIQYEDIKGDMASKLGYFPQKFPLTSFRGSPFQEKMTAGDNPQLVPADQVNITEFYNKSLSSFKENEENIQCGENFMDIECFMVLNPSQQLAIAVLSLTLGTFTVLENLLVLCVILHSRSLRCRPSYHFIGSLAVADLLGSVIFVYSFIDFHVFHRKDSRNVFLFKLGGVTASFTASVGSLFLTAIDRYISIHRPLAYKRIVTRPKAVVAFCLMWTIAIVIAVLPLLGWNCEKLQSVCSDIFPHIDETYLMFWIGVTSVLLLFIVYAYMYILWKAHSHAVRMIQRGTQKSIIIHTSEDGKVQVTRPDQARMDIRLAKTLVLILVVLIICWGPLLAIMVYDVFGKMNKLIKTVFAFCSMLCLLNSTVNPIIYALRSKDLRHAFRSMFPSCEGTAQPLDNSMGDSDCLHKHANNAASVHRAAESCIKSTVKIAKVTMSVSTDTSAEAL
Sequence of Dopamine D1 (P21728 whole entry): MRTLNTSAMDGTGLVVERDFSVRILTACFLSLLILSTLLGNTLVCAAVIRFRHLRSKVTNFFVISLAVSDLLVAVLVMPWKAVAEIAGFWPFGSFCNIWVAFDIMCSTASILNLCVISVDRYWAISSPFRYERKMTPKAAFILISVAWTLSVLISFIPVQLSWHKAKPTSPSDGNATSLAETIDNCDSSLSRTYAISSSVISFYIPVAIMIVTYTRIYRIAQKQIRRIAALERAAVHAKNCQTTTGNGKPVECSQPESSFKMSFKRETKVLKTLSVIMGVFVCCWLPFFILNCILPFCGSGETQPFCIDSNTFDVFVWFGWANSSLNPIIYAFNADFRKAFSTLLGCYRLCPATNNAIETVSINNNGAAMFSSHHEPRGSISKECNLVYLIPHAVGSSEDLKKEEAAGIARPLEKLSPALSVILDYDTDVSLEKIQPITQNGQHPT
Sequence of Kv1.5 (P22460 whole entry): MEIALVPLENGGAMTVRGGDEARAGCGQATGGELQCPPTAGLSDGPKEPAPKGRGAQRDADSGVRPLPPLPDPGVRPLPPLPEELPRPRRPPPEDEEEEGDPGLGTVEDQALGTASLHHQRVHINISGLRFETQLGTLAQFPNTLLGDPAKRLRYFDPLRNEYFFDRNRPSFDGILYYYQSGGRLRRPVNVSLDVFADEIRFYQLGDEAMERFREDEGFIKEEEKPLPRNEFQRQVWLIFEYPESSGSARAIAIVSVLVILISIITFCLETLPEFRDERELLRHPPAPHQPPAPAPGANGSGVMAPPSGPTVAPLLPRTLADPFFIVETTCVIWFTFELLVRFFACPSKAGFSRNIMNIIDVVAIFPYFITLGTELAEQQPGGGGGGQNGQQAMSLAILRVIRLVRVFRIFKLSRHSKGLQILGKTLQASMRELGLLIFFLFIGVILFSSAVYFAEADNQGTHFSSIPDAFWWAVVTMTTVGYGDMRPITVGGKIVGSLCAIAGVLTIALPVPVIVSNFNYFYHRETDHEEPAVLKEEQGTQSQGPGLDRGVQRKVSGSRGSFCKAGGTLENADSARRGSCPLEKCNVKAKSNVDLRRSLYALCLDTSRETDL
Sequence of Vasopressin V1a (P37288 whole entry): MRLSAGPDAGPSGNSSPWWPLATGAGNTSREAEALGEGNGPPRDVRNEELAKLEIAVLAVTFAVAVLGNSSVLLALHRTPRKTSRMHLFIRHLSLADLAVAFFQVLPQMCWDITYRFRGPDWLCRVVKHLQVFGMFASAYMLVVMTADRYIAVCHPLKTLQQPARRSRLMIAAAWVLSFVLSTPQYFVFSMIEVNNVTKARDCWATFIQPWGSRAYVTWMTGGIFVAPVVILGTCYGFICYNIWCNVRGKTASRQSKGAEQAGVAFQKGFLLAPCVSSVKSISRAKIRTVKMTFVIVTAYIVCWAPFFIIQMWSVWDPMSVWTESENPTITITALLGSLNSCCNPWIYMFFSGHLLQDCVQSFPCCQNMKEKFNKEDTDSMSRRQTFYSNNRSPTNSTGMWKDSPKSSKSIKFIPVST

By pEC50 is commonly meant the EC50 on a negative log10 scale, so that one unit is a factor of ten. A low value points to a high EC50. For `CCC[C@@H](NC(=O)c1cccc2c1CC(=O)N2)[C@@H](O)c1cccc(F)c1C` [GSK716], the values for the pIC50 at Kv1.5, on Dopamine D1 and on Vasopressin V1a were less than 4.30, less than 4.00 and less than 4.30, respectively. Further, the pEC50 at Cannabinoid CB1 is less than 4.00. Besides, at M α1‐antitrypsin (calculated from association rate constant and affinity, read-out: first‐order dissociation rate constant), the koff was 1.6e-05 s⁻¹. Moreover, the kon on M α1‐antitrypsin (read-out: second‐order association rate constant) came to 210 M⁻¹ s⁻¹.
